No end group written: not given here. *: point of attachment. Biotin = O=C1N[C@H]2[C@H](CS[C@H]2CCCCC(=O)*)N1

Test [1] deals with T1, PPARα-LBD (Homo sapiens, UniProt Q07869).
T1 sequence (Q07869 200-468): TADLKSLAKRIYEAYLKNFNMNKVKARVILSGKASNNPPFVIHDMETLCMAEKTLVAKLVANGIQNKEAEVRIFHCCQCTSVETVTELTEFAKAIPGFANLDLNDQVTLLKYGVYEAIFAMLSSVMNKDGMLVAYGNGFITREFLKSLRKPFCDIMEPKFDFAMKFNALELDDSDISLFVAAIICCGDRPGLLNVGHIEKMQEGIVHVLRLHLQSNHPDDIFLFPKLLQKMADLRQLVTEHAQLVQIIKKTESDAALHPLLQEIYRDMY
Kind of test: Thermal stability assay using circular dichroism spectroscopy. Type of test: binding. Details: Human PPARα-LBD (amino acids 200–468); His tag (pET28a) (N); made in house; host or cells: Rosetta (DE3) pLysS (E. coli). As to conditions: CD at 222 nm; 10 µM LBD; GW7647 at 10 µM. On the procedure:
(§1) PPARα/δ/γ-LBD proteins (10 µM) were incubated with different concentrations of ligands in buffer C consisting of 20 mM Tris-HCl (pH 8.0), 150 mM NaCl, 1 mM Tris 2-carboxyethylphosphine (TCEP)-HCl, and 10% glycerol. The circular dichroism (CD) spectra were monitored within a 200–260 nm range at increasing temperatures from 30 °C to 70 °C (2 °C/min) using a J-1500 spectropolarimeter equipped with a PTC-510 thermal controller (JASCO, Tokyo, Japan). […] The ligand-induced increases in the Tm values were defined as ∆Tm.
(§2) Nuclear receptors, including PPARs, display an increased thermal stability upon ligand binding, which is detectable through CD spectroscopy.
(§3) Figure 3 Circular dichroism-based PPARα/δ/γ-LBD thermal stability assay. […] Data are presented as the mean ± SE of three or four (in parentheses) independent experiments. Differences vs. basal levels (with 0.1% DMSO) were statistically assessed by one-way ANOVA, followed by a Dunnett’s post hoc test: * p < 0.05, ** p < 0.01, and *** p < 0.001.
For orientation: CD spectra are sensitive to the conformation of chiral molecules.

Test [2] has as its target T1, PPARα-LBD. Also noted: Human PPARα-LBD (amino acids 200–468); made in house; host or cells: Rosetta (DE3) pLysS (E. coli); method as in PMID 33205029. As to conditions: read-out: EC50 in the PGC1α recruitment activity (PPARα); cited from earlier work.
The next test concerns the target T2, human PPARα (Homo sapiens, UniProt Q07869).
T2 construct: expressed in transfected cells; host or cells: COS-7
T2 sequence (Q07869 239-466 limits assumed): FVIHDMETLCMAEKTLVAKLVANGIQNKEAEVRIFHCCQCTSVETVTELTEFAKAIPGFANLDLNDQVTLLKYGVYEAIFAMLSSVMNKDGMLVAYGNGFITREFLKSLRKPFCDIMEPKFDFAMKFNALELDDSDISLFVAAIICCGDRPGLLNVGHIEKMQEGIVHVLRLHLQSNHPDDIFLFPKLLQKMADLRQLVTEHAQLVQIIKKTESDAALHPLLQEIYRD
Kind of test: Transactivation assay (GAL4–hPPARα-LBD chimera, luciferase reporter, COS-7 cells). Type of test: cell-based. As to conditions: 100% = 1 µM GW7647, read-out: Efficacy, PPARα transactivation (% of the maximal response). On the procedure: (§4) The pSG5-GAL–hPPARα/δ/γ plasmids express fusion proteins comprising the yeast transcription factor GAL4 DNA-binding domain and each of the human PPARα/δ/γ-LBDs. The MH100(UAS)×4-tk-Luc plasmid contains four copies of the MH100 GAL4 binding site and the Firefly luciferase gene. The cells were transfected with those plasmids and were treated with various PPAR ligands, and both Firefly and Renilla luciferase activities were measured using the Dual-Glo Luciferase Assay System (Promega, Madison, WI, USA) as described previously. […] GW1929 was purchased from Sigma-Aldrich (St. Louis, MO, USA).
(§5) For the undertaking of the comparison of the potency, efficacy, and selectivity of the five PPAR ligands (Figure 1A) against the PPAR subtypes, we evaluated their PPARα/δ/γ activation using three different methods: a cell-based transactivation assay, a coactivator recruitment assay, and a thermal stability assay, as we previously performed on three fibrates (namely, bezafibrate, fenofibric acid, and pemafibrate). The cell-based transactivation assay utilizing the Gal4–PPAR-LBD system is the most widely used method for the determination of PPAR activation by certain ligands, although their responses depend on the used cell types in which several coactivators with altered functions are differentially expressed.
(§6) Figure 1 LBD-mediated human PPARα/δ/γ transactivation by PPAR ligands. (A) Chemical structures of the five PPAR ligands used in this study. […] Data are presented as the mean ± standard error (SE) of three independent experiments with duplicate samples.
For orientation: A reporter such as luciferase makes a cellular process visible.

The target in the next test is T3, human PPARδ (Homo sapiens, UniProt Q03181).
T3 construct: expressed in transfected cells; host or cells: COS-7
T3 sequence (Q03181 211-439 limits assumed): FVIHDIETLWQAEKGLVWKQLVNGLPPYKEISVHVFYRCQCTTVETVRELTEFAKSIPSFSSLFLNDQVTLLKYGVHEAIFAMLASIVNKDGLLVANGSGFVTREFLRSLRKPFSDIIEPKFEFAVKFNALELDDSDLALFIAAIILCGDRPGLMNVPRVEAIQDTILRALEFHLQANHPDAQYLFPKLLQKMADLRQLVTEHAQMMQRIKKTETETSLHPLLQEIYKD
Kind of test: Transactivation assay (GAL4–hPPARδ-LBD chimera, luciferase reporter, COS-7 cells). Type of test: cell-based. As to conditions: COS-7, read-out: Efficacy, PPARδ transactivation (% of the maximal response). On the procedure: as §4, §5, §6

The next test concerns the target T4, PPARδ-LBD (Homo sapiens, UniProt Q03181).
T4 sequence (Q03181 170-441): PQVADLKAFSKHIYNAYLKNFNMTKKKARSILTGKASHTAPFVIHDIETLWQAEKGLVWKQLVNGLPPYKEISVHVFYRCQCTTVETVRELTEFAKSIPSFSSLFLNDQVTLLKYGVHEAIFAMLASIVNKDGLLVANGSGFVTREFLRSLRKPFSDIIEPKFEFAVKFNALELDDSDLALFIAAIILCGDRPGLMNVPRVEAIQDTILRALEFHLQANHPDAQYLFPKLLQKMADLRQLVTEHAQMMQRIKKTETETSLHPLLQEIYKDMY
Put plainly: Thermal stability assay using circular dichroism spectroscopy. Details: PPARδ-LBD (amino acids 170–441); His tag (pET28a) (N); made in house; host or cells: Rosetta (DE3) pLysS (E. coli). It counts as binding. As to conditions: CD at 222 nm; 10 µM LBD; GW501516 at 50 µM. On the procedure: as §1, §2, §3

Another test addresses T5, PPARγ-LBD (Homo sapiens, UniProt P37231).
T5 sequence (P37231 203-477 isoform P37231-2): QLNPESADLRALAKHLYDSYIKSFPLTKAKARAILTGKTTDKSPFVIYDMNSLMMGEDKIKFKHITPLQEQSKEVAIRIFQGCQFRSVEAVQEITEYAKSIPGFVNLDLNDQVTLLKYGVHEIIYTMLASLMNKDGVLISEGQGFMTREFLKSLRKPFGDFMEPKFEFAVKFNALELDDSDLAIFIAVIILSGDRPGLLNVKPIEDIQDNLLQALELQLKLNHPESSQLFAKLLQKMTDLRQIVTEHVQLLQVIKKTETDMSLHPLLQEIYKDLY
The test is described as above. As to conditions: CD at 222 nm; 10 µM LBD; GW1929 at 10 µM. Details: PPARγ-LBD (amino acids 203–477 in isoform 1); His tag (pET28a) (N); made in house; host or cells: Rosetta (DE3) pLysS (E. coli). Type of test: binding. On the procedure: as §1, §2, §3

In test [3] the target is T6, Human PPARα-LBD (amino acids 200–468), amino-terminal His-tagged (human, UniProt Q07869 200-468).
T6 construct: The His tag is detected by the anti-6xHis antibody in the TR-FRET assay; A delipidized preparation was used for some PPARα crystals; also called hPPARα-LBD; not shown: His tag, N-terminal, kept
T6 sequence (looked up): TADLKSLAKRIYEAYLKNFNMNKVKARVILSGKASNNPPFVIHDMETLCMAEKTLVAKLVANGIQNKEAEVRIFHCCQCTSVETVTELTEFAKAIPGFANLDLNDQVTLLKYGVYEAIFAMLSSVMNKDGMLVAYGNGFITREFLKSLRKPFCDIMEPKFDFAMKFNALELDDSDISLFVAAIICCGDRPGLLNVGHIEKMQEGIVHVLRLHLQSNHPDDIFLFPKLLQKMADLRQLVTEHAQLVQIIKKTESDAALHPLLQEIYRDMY
Put plainly: FRET or BRET; LANCE Ultra TR-FRET; His-tagged LBD (400 nM solution, 9.5 µL) + biotin-PGC1α (4 µM, 5 µL) or biotin-SRC1 peptide (8 µM, 5 µL), Eu-W1024 anti-6×His antibody / ULight-Streptavidin, 2 h, room temperature; buffer A (10 mM HEPES-NaOH pH 7.4, 150 mM NaCl, 0.005% Tween 20, 0.1% BSA) for PPARα/γ-LBD, buffer B (50 mM HEPES-NaOH pH 7.4, 50 mM KCl, 1 mM EDTA, 0.5 mM DTT, 0.1% BSA) for PPARδ-LBD; ligand: reference …. As to conditions: both partners purified. In general terms: In BRET a luciferase serves as donor, and the signal depends on an acceptor being close.

Take `CC(C)(Sc1ccc(CCN(CCCCC2CCCCC2)C(=O)NC2CCCCC2)cc1)C(=O)O` [GW7647]: the “Effect on Tm of PPARα-LBD (in words)” value at PPARα-LBD [1] was “highly increased Tm values”.
Usually EC50 stands for the concentration that produces a half-maximal response. As to `CC(C)(Oc1ccc(Cl)cc1)C(=O)O` [clofibric acid], at PPARα-LBD [2], the EC50 is 574 µM.
For `CCc1ccc(CCOc2ccc(CC3SC(=O)NC3=O)cc2)nc1` (centres unmarked) [pioglitazone], the Emax at human PPARα was 25.2%; at human PPARδ it was 0.518%. Further, the “Effect on Tm of PPARδ-LBD (in words)” value at PPARδ-LBD was “no effects”. In addition, on PPARα-LBD [1], the “Effect on Tm of PPARα-LBD (in words)” value is on record as “no effects”.
Consider GW1929, for which the “Effect on Tm of PPARγ-LBD (in words)” value on PPARγ-LBD is listed as “highly increased Tm values”.

B1: biotin-labeled PPARγ coactivator 1α (PGC1α) coactivator peptide (amino acids 137–155) (peptide)
peptide: Biotin-EAEEPSLLKKLLLAPANTQ
notes: also called biotin-PGC1α; source: synthetic peptide (GenScript)
As to B1, the binding result in test [3] was “binds”.

The values above are taken from PMC10451623 (Antioxidants, 2023).
